# Like-named read-outs stand apart in the source and are kept apart here.
# How the values were obtained:
# [1] = test system: HBD3; experiment: cells; format: cell-based, human; settings: for fold induction at 10000 µM: Homo sapiens, Keratinocyte; for relative gene expression level HBD3: primary keratinocytes, 10000 µM
# Experimental: (§1) Primary human epidermal keratinocytes were prepared from neonatal foreskin as described previously (Grether-Beck et al, 1996, 2000, 2003, 2005, 2008) and maintained in culture under serum free conditions using a defined keratinocyte growth medium Keratinocyte SFM (Invitrogen, Heidelberg, Germany) supplemented with bovine pituitary extract (Invitrogen, Heidelberg, Germany) and recombinant epidermal growth factor (Invitrogen, Heidelberg, Germany). Cells were propagated up to passage 2 or 3 at 37°C and 5 % CO2 (Grether-Beck et al, 1996, 2000, 2003, 2005, 2008). For induction of differentiation NHEKs were seeded in 6well plates and grown up to confluence.
# (§2) For assessment of gene expression total RNA was extracted from frozen biopsies (Ø 4 mm) and gene expression measured by semiquantitative RT-PCR. For isolation of RNA from frozen skin biopsies, 600 µl lysis buffer from PeqGold Total RNA Kit (PeqLab, Erlangen, Germany) were added and the samples were disrupted in a MixerMill MM300 (Retsch, Haan, Germany) three times for 3 min with 30 Hz. 50 ng total RNA were used for cDNA synthesis. PCR reactions were performed in an Opticon 1 (MJ Research, Waltham, MA, USA) using Sybr QPCR Supermix w. Rox (Invitrogen, Karlsruhe, Germany). PCR conditions were as follows: activation of hot start taq polymerase 94° C 15 minutes; denaturation 95° C, 20 seconds; annealing, 55° C, 20 seconds; extension, 72° C 30 seconds. Each sample was subjected to PCR in double using the appropriate primer pairs for 45-50 cycles. For comparison of relative expression in real time PCR control cells and treated cells the 2 (-della delta C(T)) method was used (Livak KJ, and Schmittgen TD. Analysis of relative gene expression data using real time quantitative PCR and the 2 (-delta delta C(T)) method. Methods 2001: 25: 402 - 408). mRNA expression of the genes of interest was shown as fold induction as compared to untreated skin samples of the same volunteer. Table 1: Primer pairs for real time PCR
# (§3) For determination of relative gene expression in real time PCT the 2(-delta delta C(T))-method was used as described in Livak and Schmittgen (2001) "Analysis of relative gene expression data using real time quantitative PCR and the 2 (-delta delta C(T))-method" Methods 25: 401-408. For statistical analysis, the experimental data were analyzed using the Wilcoxon signed-rank test.
# (§4) HNKs were stimulated with 10mM urea for the indicated time points (3h, 6h, 12h, 24h) and processed for RNA analysis (1). Data are the result of a set of three samples for the control and two samples in parallel for the urea stimulated ones. Table 2 indicates the relative gene expression levels after stimulation with urea as compared to untreated contol cells. […] Table 3 indicates the data depicted in Figure 2. [formula] Table 2: Expression of antimicrobial peptides in human keratinocytes after stimulation with urea at different time points after induction.
# [2] = test system: Humpsor; experiment: cells; format: cell-based, human; settings: for fold induction at 10000 µM: Homo sapiens, Keratinocyte
# Experimental: as §1, §2, §3, §4
# [3] = test system: HBD2; experiment: cells; format: cell-based, human; settings: for fold induction at 10000 µM: Homo sapiens, Keratinocyte
# Experimental: as §1, §2, §3, §4
# [4] = test system: HBD1; experiment: cells; format: cell-based, human; settings: for fold induction at 10000 µM: Homo sapiens, Keratinocyte; for relative gene expression level HBD1: primary keratinocytes, 10000 µM
# Experimental: as §1, §2, §3, §4
# [5] = test system: HBD-2; experiment: cells; format: cell-based, human; settings: for fold induction at 1000 µM / fold induction at 10000 µM / fold induction at 20000 µM / fold induction at 50000 µM / fold induction at 100000 µM / fold induction at 5000 µM: Homo sapiens, Keratinocyte; for Expression of HBD-2: keratinocytes
# Experimental: as §1, §2, §3
# Data are the result of a set of three samples for the control and two samples in parallel for the urea stimulated ones. Table 2 indicates the relative gene expression levels after stimulation with urea as compared to untreated contol cells. […] Table 3 indicates the data depicted in Figure 2. [formula] Table 2: Expression of antimicrobial peptides in human keratinocytes after stimulation with urea at different time points after induction.
# [6] = test system: LL-37; experiment: LL-37 gene expression in subconfluent primary human keratinocytes after urea stimulation (real time PCR); format: cell-based; settings: 10mM urea, compared to untreated control cells; for relative gene expression level LL-37: 10000 µM; for fold induction at 10000 µM: Homo sapiens, Keratinocyte, read-out: relative gene expression level LL-37
# Experimental: as §1, §2, §3, §4
compound,measurement,setting,value
NC(N)=O [urea],fold induction at 10000 µM,"[1]; 3 h, read-out: relative gene expression level HBD3, 10mM urea, 3h, compared to untreated control cells",4
same,fold induction at 10000 µM,"[1]; 6 h, read-out: relative gene expression level HBD3, 10mM urea, 6h, compared to untreated control cells",2
same,fold induction at 10000 µM,"[1]; 12 h, read-out: relative gene expression level HBD3, 10mM urea, 12h, compared to untreated control cells",1.6
same,fold induction at 10000 µM,"[1]; 24 h, read-out: relative gene expression level HBD3, 10mM urea, 24h, compared to untreated control cells",3.2
same,relative gene expression level HBD3,[1]; 3 h,3.7000
same,relative gene expression level HBD3,[1]; 6 h,1.8000
same,relative gene expression level HBD3,[1]; 12 h,1.7000
same,relative gene expression level HBD3,[1]; 24 h,3.3000
same,fold induction at 10000 µM,"[2]; 3 h, read-out: relative gene expression level Humpsor, 10mM urea, 3h, compared to untreated control cells",1.9
same,fold induction at 10000 µM,"[2]; 6 h, read-out: relative gene expression level Humpsor, 10mM urea, 6h, compared to untreated control cells",2.6
same,fold induction at 10000 µM,"[2]; 24 h, read-out: relative gene expression level Humpsor, 10mM urea, 24h, compared to untreated control cells",1.5
same,relative gene expression level Humpsor,"[2]; primary keratinocytes, 6 h, 10000 µM",3.1000
same,fold induction at 10000 µM,"[3]; 3 h, read-out: relative gene expression level HBD2, 10mM urea, 3h, compared to untreated control cells",1.8
same,fold induction at 10000 µM,"[3]; 6 h, read-out: relative gene expression level HBD2, 10mM urea, 6h, compared to untreated control cells",1.1
same,fold induction at 10000 µM,"[3]; 12 h, read-out: relative gene expression level HBD2, 10mM urea, 12h, compared to untreated control cells",1.5
same,fold induction at 10000 µM,"[3]; 24 h, read-out: relative gene expression level HBD2, 10mM urea, 24h, compared to untreated control cells",1.6
same,relative gene expression level HBD2,"[3]; primary keratinocytes, 3 h, 10000 µM",1.7000
same,fold induction at 10000 µM,"[4]; 3 h, read-out: relative gene expression level HBD1, 10mM urea, 3h, compared to untreated control cells",3.1
same,fold induction at 10000 µM,"[4]; 6 h, read-out: relative gene expression level HBD1, 10mM urea, 6h, compared to untreated control cells",1.3
same,fold induction at 10000 µM,"[4]; 12 h, read-out: relative gene expression level HBD1, 10mM urea, 12h, compared to untreated control cells",1.6
same,fold induction at 10000 µM,"[4]; 24 h, read-out: relative gene expression level HBD1, 10mM urea, 24h, compared to untreated control cells",1.6
same,relative gene expression level HBD1,[4]; 3 h,3.000
same,relative gene expression level HBD1,[4]; 6 h,1.5000
same,fold induction at 1000 µM,"[5]; 24 h, read-out: Expression of HBD-2, 24h, 1mM urea",1.2
same,fold induction at 10000 µM,"[5]; 24 h, read-out: Expression of HBD-2, 24h, 10mM urea",1.5
same,fold induction at 20000 µM,"[5]; 24 h, read-out: Expression of HBD-2, 24h, 20mM urea",3.9
same,fold induction at 50000 µM,"[5]; 24 h, read-out: Expression of HBD-2, 24h, 50mM urea",2.3
same,fold induction at 100000 µM,"[5]; 24 h, read-out: Expression of HBD-2, 24h, 100mM urea",1.3
same,fold induction at 1000 µM,"[5]; 48 h, read-out: Expression of HBD-2, 48h, 1mM urea",0.9
same,fold induction at 5000 µM,"[5]; 48 h, read-out: Expression of HBD-2, 48h, 5mM urea",1.7
same,fold induction at 10000 µM,"[5]; 48 h, read-out: Expression of HBD-2, 48h, 10mM urea",3.3
same,fold induction at 20000 µM,"[5]; 48 h, read-out: Expression of HBD-2, 48h, 20mM urea",19.1
same,fold induction at 50000 µM,"[5]; 48 h, read-out: Expression of HBD-2, 48h, 50mM urea",6.3
same,fold induction at 100000 µM,"[5]; 48 h, read-out: Expression of HBD-2, 48h, 100mM urea",2.3
same,fold induction at 1000 µM,"[5]; 72 h, read-out: Expression of HBD-2, 72h, 1mM urea",2.2
same,fold induction at 5000 µM,"[5]; 72 h, read-out: Expression of HBD-2, 72h, 5mM urea",5.4
same,fold induction at 10000 µM,"[5]; 72 h, read-out: Expression of HBD-2, 72h, 10mM urea",6.5
same,fold induction at 20000 µM,"[5]; 72 h, read-out: Expression of HBD-2, 72h, 20mM urea",13.3
same,fold induction at 50000 µM,"[5]; 72 h, read-out: Expression of HBD-2, 72h, 50mM urea",10.1
same,fold induction at 100000 µM,"[5]; 72 h, read-out: Expression of HBD-2, 72h, 100mM urea",2.9
same,fold induction at 1000 µM,"[5]; 96 h, read-out: Expression of HBD-2, 96h, 1mM urea",1.9
same,fold induction at 5000 µM,"[5]; 96 h, read-out: Expression of HBD-2, 96h, 5mM urea",4.1
same,fold induction at 10000 µM,"[5]; 96 h, read-out: Expression of HBD-2, 96h, 10mM urea",6.1
same,fold induction at 20000 µM,"[5]; 96 h, read-out: Expression of HBD-2, 96h, 20mM urea",15
same,fold induction at 50000 µM,"[5]; 96 h, read-out: Expression of HBD-2, 96h, 50mM urea",12.6
same,fold induction at 100000 µM,"[5]; 96 h, read-out: Expression of HBD-2, 96h, 100mM urea",10.2
same,Expression of HBD-2,"[5]; 24 h, 1000 µM",1.1000
same,Expression of HBD-2,"[5]; 24 h, 10000 µM",1.6000
same,Expression of HBD-2,"[5]; 48 h, 1000 µM",0.7000
same,Expression of HBD-2,"[5]; 48 h, 5000 µM",1.6000
same,Expression of HBD-2,"[5]; 48 h, 50000 µM",6.2000
same,Expression of HBD-2,"[5]; 48 h, 100000 µM",2.6000
same,Expression of HBD-2,"[5]; 72 h, 1000 µM",2.6000
same,Expression of HBD-2,"[5]; 72 h, 10000 µM",7.0000
same,Expression of HBD-2,"[5]; 72 h, 20000 µM",13.2000
same,Expression of HBD-2,"[5]; 96 h, 1000 µM",1.8000
same,Expression of HBD-2,"[5]; 96 h, 5000 µM",4.2000
same,Expression of HBD-2,"[5]; 96 h, 100000 µM",10.9000
same,relative gene expression level LL-37,"[6]; 3h, 180 min",1.9000
same,relative gene expression level LL-37,"[6]; 24h, 1440 min",1.9000
same,fold induction at 10000 µM,"[6]; 6 h, 6h",2.8
same,fold induction at 10000 µM,"[6]; 12 h, 12h",2.3
same,fold induction at 10000 µM,"[6]; 24 h, 24h",2.1
